Test results published in PubChem BioAssay (NCI).
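Cultured in 96-well plates, cells were exposed to test compound for 48 hours across five concentrations. GI50 is the concentration that inhibits growth by half. TGI: concentration producing complete growth inhibition.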

How the values were obtained:
Assay in all cases: growth of human tumour cells (NCI), 48 h
786-0 renal = tested on: 786-0 renal
A498 renal = tested on: A498 renal
A549 NSCLC = tested on: A549 NSCLC
ACHN renal = tested on: ACHN renal
BT-549 breast = tested on: BT-549 breast
CAKI-1 renal = tested on: CAKI-1 renal
CCRF-CEM leukemia = tested on: CCRF-CEM leukemia
COLO 205 colon = tested on: COLO 205 colon
DU-145 prostate = tested on: DU-145 prostate
EKVX NSCLC = tested on: EKVX NSCLC
HCC-2998 colon = tested on: HCC-2998 colon
HCT-116 colon = tested on: HCT-116 colon
HCT-15 colon = tested on: HCT-15 colon
HL-60(TB) leukemia = tested on: HL-60(TB) leukemia
HOP-62 NSCLC = tested on: HOP-62 NSCLC
HOP-92 NSCLC = tested on: HOP-92 NSCLC
HS 578T breast = tested on: HS 578T breast
HT29 colon = tested on: HT29 colon
IGROV1 ovarian = tested on: IGROV1 ovarian
K-562 leukemia = tested on: K-562 leukemia
KM12 colon = tested on: KM12 colon
LOX IMVI melanoma = tested on: LOX IMVI melanoma
M14 melanoma = tested on: M14 melanoma
MALME-3M melanoma = tested on: MALME-3M melanoma
MCF7 breast = tested on: MCF7 breast
MDA-MB-231 breast = tested on: MDA-MB-231 breast
MDA-MB-435 = tested on: MDA-MB-435
MOLT-4 leukemia = tested on: MOLT-4 leukemia
NCI-H226 lung = tested on: NCI-H226 lung
NCI-H23 lung = tested on: NCI-H23 lung
NCI-H460 lung = tested on: NCI-H460 lung
NCI-H522 lung = tested on: NCI-H522 lung
NCI/ADR-RES ovarian = tested on: NCI/ADR-RES ovarian
OVCAR-3 ovarian = tested on: OVCAR-3 ovarian
OVCAR-4 ovarian = tested on: OVCAR-4 ovarian
OVCAR-5 ovarian = tested on: OVCAR-5 ovarian
OVCAR-8 ovarian = tested on: OVCAR-8 ovarian
PC-3 prostate = tested on: PC-3 prostate
RPMI-8226 leukemia = tested on: RPMI-8226 leukemia
RXF 393 renal = tested on: RXF 393 renal
SF-268 CNS = tested on: SF-268 CNS
SF-295 CNS = tested on: SF-295 CNS
SF-539 CNS = tested on: SF-539 CNS
SK-MEL-2 melanoma = tested on: SK-MEL-2 melanoma
SK-MEL-28 melanoma = tested on: SK-MEL-28 melanoma
SK-MEL-5 melanoma = tested on: SK-MEL-5 melanoma
SK-OV-3 ovarian = tested on: SK-OV-3 ovarian
SN12C renal = tested on: SN12C renal
SNB-19 CNS = tested on: SNB-19 CNS
SNB-75 CNS = tested on: SNB-75 CNS
SR leukemia = tested on: SR leukemia
SW-620 colon = tested on: SW-620 colon
T-47D breast = tested on: T-47D breast
TK-10 renal = tested on: TK-10 renal
U251 CNS = tested on: U251 CNS
UACC-257 melanoma = tested on: UACC-257 melanoma
UACC-62 melanoma = tested on: UACC-62 melanoma
UO-31 renal = tested on: UO-31 renal

Nc1nc(-c2ccc(Cl)cc2)cc(-c2ccccc2)c1-c1nc2ccccc2o1
GI50 (786-0 renal): 4.52 µM | TGI (786-0 renal): 19.8 µM | GI50 (A498 renal): 15.8 µM | TGI (A498 renal): 30.5 µM | GI50 (A549 NSCLC): 5.9 µM | TGI (A549 NSCLC): > 100 µM | GI50 (ACHN renal): 8.8 µM | TGI (ACHN renal): 23.3 µM | GI50 (BT-549 breast): 13.5 µM | TGI (BT-549 breast): 28.3 µM | GI50 (CAKI-1 renal): 12.2 µM | TGI (CAKI-1 renal): 28.6 µM | GI50 (CCRF-CEM leukemia): 4.2 µM | TGI (CCRF-CEM leukemia): 33.6 µM | GI50 (COLO 205 colon): 19.1 µM | TGI (COLO 205 colon): 35.9 µM | GI50 (DU-145 prostate): 7.68 µM | TGI (DU-145 prostate): 30.4 µM | GI50 (EKVX NSCLC): 12.4 µM | TGI (EKVX NSCLC): 28 µM | GI50 (HCC-2998 colon): 8.39 µM | TGI (HCC-2998 colon): 34 µM | GI50 (HCT-116 colon): 3.21 µM | TGI (HCT-116 colon): 9.17 µM | GI50 (HCT-15 colon): 6.15 µM | TGI (HCT-15 colon): 28.3 µM | GI50 (HL-60(TB) leukemia): 3.47 µM | TGI (HL-60(TB) leukemia): 9.23 µM | GI50 (HOP-62 NSCLC): 2.92 µM | TGI (HOP-62 NSCLC): 7.47 µM | GI50 (HOP-92 NSCLC): 2.19 µM | TGI (HOP-92 NSCLC): 6.18 µM | GI50 (HS 578T breast): 12.7 µM | TGI (HS 578T breast): 40.9 µM | GI50 (HT29 colon): 5.99 µM | TGI (HT29 colon): 39.1 µM | GI50 (IGROV1 ovarian): 12.5 µM | TGI (IGROV1 ovarian): 49 µM | GI50 (K-562 leukemia): 3.69 µM | TGI (K-562 leukemia): > 100 µM | GI50 (KM12 colon): 2.65 µM | TGI (KM12 colon): 8.17 µM | GI50 (LOX IMVI melanoma): 2.42 µM | TGI (LOX IMVI melanoma): 5.77 µM | GI50 (M14 melanoma): 10.4 µM | TGI (M14 melanoma): 26.2 µM | GI50 (MALME-3M melanoma): 10.3 µM | TGI (MALME-3M melanoma): 33.4 µM | GI50 (MCF7 breast): 3.1 µM | TGI (MCF7 breast): > 100 µM | GI50 (MDA-MB-231 breast): 5.02 µM | TGI (MDA-MB-231 breast): 17.8 µM | GI50 (MDA-MB-435): 9.45 µM | TGI (MDA-MB-435): 26.9 µM | GI50 (MOLT-4 leukemia): 3.3 µM | TGI (MOLT-4 leukemia): 11.4 µM | GI50 (NCI-H226 lung): 15.1 µM | TGI (NCI-H226 lung): 31.3 µM | GI50 (NCI-H23 lung): 6.24 µM | TGI (NCI-H23 lung): 34.6 µM | GI50 (NCI-H460 lung): 3.98 µM | TGI (NCI-H460 lung): > 100 µM | GI50 (NCI-H522 lung): 9.5 µM | TGI (NCI-H522 lung): 33.9 µM | GI50 (NCI/ADR-RES ovarian): 5.46 µM | TGI (NCI/ADR-RES ovarian): > 100 µM | GI50 (OVCAR-3 ovarian): 7.29 µM | TGI (OVCAR-3 ovarian): 27.3 µM | GI50 (OVCAR-4 ovarian): 11.5 µM | TGI (OVCAR-4 ovarian): 28 µM | GI50 (OVCAR-5 ovarian): 19.8 µM | TGI (OVCAR-5 ovarian): 54.7 µM | GI50 (OVCAR-8 ovarian): 14.1 µM | TGI (OVCAR-8 ovarian): 54.1 µM | GI50 (PC-3 prostate): 4.62 µM | TGI (PC-3 prostate): 16.8 µM | GI50 (RPMI-8226 leukemia): 6.9 µM | TGI (RPMI-8226 leukemia): 23 µM | GI50 (RXF 393 renal): 3.69 µM | TGI (RXF 393 renal): 16.9 µM | GI50 (SF-268 CNS): 6.38 µM | TGI (SF-268 CNS): 67.2 µM | GI50 (SF-295 CNS): 15 µM | TGI (SF-295 CNS): 35.6 µM | GI50 (SF-539 CNS): 16.1 µM | TGI (SF-539 CNS): 32.2 µM | GI50 (SK-MEL-2 melanoma): 15.5 µM | TGI (SK-MEL-2 melanoma): 39.2 µM | GI50 (SK-MEL-28 melanoma): 15.2 µM | TGI (SK-MEL-28 melanoma): 34 µM | GI50 (SK-MEL-5 melanoma): 14.6 µM | TGI (SK-MEL-5 melanoma): 29.4 µM | GI50 (SK-OV-3 ovarian): 15.4 µM | TGI (SK-OV-3 ovarian): 32.4 µM | GI50 (SN12C renal): 3.05 µM | TGI (SN12C renal): 9.29 µM | GI50 (SNB-19 CNS): 18.6 µM | TGI (SNB-19 CNS): 44.6 µM | GI50 (SNB-75 CNS): 10.5 µM | TGI (SNB-75 CNS): 24.5 µM | GI50 (SR leukemia): 3.37 µM | TGI (SR leukemia): 8.97 µM | GI50 (SW-620 colon): 13.4 µM | TGI (SW-620 colon): 31.1 µM | GI50 (T-47D breast): 10.2 µM | TGI (T-47D breast): 27.2 µM | GI50 (TK-10 renal): 3.02 µM | TGI (TK-10 renal): 8.95 µM | GI50 (U251 CNS): 4.49 µM | TGI (U251 CNS): 18.7 µM | GI50 (UACC-257 melanoma): 15.3 µM | TGI (UACC-257 melanoma): 35.3 µM | GI50 (UACC-62 melanoma): 15.8 µM | TGI (UACC-62 melanoma): 30.7 µM | GI50 (UO-31 renal): 10.3 µM | TGI (UO-31 renal): 26.4 µM
